Results: ChEMBL document CHEMBL5465560, “Selectivity Literature for EUbOPEN Chemogenomic Library” (2024)
Values belong to the molecule of their own block, whether it stands above or below them.

How the values were obtained:
[1] = target: Tyrosine-protein kinase receptor Tie-1 (Homo sapiens) (UniProt P35590); experiment: Selectivity interaction (KinomeScan (DiscoverX)) EUB0001049a TIE1; settings: at 1 µM
MAO-B (MAOB) = MAO-B (MAOB) (Homo sapiens, UniProt P27338); experiment: Selectivity interaction (Panel of kinases, GPCRs, ion channels and transporters (enzymatic assay)) EUB0000266bCl MAOB
MAO-B (MAOB), sequence (P27338 whole entry): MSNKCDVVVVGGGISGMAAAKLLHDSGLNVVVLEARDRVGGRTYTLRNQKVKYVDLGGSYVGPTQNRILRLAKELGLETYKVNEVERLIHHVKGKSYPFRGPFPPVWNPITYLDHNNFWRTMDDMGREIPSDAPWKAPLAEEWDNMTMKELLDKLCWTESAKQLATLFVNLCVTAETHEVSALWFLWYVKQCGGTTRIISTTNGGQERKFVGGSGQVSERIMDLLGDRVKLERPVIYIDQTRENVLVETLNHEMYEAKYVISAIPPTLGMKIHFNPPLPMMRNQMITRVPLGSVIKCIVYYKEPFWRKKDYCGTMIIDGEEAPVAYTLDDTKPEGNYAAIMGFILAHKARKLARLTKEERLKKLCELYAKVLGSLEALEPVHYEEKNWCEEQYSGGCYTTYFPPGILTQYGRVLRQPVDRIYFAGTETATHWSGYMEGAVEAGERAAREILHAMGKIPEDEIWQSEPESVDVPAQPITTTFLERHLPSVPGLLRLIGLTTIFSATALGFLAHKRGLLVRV

[2] = target: Serine/threonine-protein kinase RIO2 (Homo sapiens) (UniProt Q9BVS4); experiment: Selectivity interaction (Ambit KINOMEscan and KiNATiv profiling in Jurkat cells) EUB0000090b RIOK2; assay type: cell-based; settings: at 1 µM
Serine/threonine-protein kinase RIO2 (Homo sapiens), sequence (Q9BVS4 whole entry, looked up): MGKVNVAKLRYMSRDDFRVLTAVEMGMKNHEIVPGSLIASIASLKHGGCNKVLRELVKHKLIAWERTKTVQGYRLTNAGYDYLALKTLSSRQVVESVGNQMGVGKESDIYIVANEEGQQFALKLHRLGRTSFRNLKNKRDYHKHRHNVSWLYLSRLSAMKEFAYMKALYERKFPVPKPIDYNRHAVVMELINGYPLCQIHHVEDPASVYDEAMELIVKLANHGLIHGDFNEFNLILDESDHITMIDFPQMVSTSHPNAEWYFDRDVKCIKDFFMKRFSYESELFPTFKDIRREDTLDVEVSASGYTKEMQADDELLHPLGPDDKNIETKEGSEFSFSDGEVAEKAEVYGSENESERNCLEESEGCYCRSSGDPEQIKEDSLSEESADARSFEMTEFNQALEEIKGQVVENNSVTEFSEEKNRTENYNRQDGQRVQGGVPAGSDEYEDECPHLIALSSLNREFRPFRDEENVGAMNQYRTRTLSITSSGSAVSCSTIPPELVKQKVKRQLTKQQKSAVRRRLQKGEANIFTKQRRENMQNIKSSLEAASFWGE

[3] = target: T1, Membrane-associated tyrosine- and threonine-specific cdc2-inhibitory kinase (Homo sapiens) (UniProt Q99640); experiment: Selectivity interaction (LanthaScreen Eu Kinase Binding Assay) EUB0001632a PKMYT1; settings: at 10 µM
T1 sequence (whole entry): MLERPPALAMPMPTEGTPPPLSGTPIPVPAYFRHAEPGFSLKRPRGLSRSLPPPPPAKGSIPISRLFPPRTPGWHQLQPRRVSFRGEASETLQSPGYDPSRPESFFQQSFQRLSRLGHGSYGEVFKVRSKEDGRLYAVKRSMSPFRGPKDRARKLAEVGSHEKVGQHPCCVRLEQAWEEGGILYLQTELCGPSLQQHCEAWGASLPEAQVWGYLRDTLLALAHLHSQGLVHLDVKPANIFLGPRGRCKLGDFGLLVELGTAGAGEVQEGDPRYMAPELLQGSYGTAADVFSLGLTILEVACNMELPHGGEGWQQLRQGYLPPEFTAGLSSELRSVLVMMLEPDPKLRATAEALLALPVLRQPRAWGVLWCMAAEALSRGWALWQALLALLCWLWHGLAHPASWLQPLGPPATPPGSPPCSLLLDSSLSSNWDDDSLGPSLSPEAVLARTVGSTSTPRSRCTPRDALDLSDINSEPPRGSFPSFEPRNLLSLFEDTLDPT

[4] = target: Serine/threonine-protein kinase PAK 6 (Homo sapiens) (UniProt Q9NQU5); experiment: Selectivity interaction (Kinase panel (Z-LYTE Assay)) EUB0001632a PAK6; settings: at 10 µM
Serine/threonine-protein kinase PAK 6 (Homo sapiens), sequence (Q9NQU5 whole entry, looked up): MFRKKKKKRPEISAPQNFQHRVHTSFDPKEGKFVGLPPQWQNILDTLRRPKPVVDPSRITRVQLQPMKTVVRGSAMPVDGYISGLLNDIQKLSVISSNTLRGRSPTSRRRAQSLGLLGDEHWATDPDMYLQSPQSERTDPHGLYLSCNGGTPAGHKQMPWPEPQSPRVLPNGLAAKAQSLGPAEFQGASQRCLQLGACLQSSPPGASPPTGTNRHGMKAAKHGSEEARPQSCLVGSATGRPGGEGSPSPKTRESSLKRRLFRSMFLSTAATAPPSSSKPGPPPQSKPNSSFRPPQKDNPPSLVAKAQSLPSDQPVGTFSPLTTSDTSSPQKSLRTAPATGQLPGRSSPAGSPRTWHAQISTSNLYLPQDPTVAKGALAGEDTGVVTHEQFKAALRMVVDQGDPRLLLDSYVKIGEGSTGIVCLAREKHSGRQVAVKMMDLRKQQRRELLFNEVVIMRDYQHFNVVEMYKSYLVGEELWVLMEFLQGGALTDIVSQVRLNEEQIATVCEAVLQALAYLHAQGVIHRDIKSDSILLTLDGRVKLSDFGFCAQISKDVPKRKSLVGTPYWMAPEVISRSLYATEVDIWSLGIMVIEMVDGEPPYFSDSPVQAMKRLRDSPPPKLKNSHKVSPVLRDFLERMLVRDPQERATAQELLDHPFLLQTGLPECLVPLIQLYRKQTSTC

[5] = target: T2, Serine/threonine-protein kinase Sgk1 (Homo sapiens) (UniProt O00141); experiment: Selectivity interaction (Upstate Kinase Profiler service (Millipore)) EUB0000056c SGK1; settings: at 1 µM
T2 sequence (whole entry): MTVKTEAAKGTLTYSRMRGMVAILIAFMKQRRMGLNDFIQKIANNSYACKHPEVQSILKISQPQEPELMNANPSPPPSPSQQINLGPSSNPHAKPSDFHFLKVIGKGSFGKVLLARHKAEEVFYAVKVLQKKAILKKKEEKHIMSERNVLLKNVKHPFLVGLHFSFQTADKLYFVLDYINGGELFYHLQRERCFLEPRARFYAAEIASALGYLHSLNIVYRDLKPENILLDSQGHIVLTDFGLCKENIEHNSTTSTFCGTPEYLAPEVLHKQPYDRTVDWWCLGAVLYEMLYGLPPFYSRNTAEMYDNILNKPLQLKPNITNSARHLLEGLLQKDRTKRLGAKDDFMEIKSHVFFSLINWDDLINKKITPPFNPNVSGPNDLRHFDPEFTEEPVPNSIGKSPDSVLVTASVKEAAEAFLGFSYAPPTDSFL

[6] = target: T3, Phosphatidylinositol 5-phosphate 4-kinase type-2 gamma (Homo sapiens) (UniProt Q8TBX8); experiment: Selectivity interaction (KinomeScan (DiscoverX)) EUB0000045b PIP4K2C; settings: at 1 µM
T3 sequence (whole entry): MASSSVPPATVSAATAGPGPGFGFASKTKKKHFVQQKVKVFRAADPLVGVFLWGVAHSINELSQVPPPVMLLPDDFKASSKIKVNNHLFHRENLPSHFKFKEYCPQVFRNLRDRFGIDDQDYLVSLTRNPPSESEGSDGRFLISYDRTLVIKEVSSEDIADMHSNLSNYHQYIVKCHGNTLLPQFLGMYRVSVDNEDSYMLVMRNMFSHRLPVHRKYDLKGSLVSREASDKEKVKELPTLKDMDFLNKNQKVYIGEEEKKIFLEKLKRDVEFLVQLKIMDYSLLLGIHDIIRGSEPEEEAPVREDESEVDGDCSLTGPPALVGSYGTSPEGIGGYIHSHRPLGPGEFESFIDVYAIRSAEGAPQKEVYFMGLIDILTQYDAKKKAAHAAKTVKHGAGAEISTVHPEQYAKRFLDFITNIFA

[7] = target: Serine/threonine-protein kinase MARK2 (Homo sapiens) (UniProt Q7KZI7); experiment: Selectivity interaction (Kinase panel (KiNativ target engagement assay in Jurkat cells)) EUB0001635a MARK2; assay type: cell-based; settings: Selectivity number of off-targets 0.0, Selectivity number of targets 233.0, Source Knowledge https://www.sciencedirect.com/science/article/pii/S2451945619300674?via%3Dihub, at 1 µM
Serine/threonine-protein kinase MARK2 (Homo sapiens), sequence (Q7KZI7 whole entry): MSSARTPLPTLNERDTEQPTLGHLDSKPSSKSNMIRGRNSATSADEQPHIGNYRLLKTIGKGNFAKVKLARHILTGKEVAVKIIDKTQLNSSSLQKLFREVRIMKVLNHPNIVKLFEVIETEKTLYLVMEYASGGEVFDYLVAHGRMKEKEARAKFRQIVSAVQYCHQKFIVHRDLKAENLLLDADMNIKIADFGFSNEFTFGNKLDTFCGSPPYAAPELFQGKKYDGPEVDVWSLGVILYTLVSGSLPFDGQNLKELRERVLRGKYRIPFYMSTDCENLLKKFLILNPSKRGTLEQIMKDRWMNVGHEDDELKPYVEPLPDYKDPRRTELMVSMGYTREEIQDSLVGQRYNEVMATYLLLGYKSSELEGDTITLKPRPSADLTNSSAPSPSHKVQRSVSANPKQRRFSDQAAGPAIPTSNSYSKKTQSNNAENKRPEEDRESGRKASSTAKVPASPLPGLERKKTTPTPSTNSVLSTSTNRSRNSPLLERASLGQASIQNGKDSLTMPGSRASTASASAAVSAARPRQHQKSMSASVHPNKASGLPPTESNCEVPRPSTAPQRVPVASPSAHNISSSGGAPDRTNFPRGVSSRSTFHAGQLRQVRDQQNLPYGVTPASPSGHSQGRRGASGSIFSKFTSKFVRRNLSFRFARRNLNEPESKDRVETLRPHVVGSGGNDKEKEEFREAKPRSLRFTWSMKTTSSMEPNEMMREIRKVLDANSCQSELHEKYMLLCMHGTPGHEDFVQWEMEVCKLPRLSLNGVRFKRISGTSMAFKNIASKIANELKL

[8] = target: T4, Protein arginine N-methyltransferase 9 (Homo sapiens) (UniProt Q6P2P2); experiment: Selectivity interaction (Methyltransferase screen (Scintillation proximity assays)) EUB0000255b PRMT9
T4 sequence (whole entry): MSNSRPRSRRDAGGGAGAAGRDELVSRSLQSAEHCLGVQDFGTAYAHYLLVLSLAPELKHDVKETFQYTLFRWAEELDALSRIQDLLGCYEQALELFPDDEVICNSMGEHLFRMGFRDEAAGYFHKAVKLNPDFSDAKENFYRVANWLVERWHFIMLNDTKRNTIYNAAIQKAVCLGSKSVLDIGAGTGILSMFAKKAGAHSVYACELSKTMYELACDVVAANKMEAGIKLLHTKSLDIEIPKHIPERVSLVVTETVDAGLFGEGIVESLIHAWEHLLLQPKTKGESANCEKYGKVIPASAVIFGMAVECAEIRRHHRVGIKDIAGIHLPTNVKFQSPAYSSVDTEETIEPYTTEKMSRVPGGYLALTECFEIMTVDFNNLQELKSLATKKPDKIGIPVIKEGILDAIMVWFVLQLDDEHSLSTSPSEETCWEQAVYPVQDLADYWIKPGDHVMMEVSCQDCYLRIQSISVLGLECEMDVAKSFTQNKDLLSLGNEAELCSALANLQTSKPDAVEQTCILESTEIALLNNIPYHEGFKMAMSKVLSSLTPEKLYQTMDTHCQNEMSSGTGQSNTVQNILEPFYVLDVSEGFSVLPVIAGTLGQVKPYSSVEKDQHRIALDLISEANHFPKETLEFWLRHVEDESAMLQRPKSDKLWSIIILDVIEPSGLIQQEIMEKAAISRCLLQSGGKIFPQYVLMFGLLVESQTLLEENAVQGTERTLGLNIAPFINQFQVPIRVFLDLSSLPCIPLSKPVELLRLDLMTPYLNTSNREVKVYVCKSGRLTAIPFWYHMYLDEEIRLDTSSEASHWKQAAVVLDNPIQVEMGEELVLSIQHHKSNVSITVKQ

[9] = target: Receptor-interacting serine/threonine-protein kinase 2 (Homo sapiens, UniProt O43353); experiment: Selectivity interaction (KinomeScan (DiscoverX)) EUB0000666a RIPK2; settings: at 10 µM
Receptor-interacting serine/threonine-protein kinase 2, sequence (O43353 whole entry): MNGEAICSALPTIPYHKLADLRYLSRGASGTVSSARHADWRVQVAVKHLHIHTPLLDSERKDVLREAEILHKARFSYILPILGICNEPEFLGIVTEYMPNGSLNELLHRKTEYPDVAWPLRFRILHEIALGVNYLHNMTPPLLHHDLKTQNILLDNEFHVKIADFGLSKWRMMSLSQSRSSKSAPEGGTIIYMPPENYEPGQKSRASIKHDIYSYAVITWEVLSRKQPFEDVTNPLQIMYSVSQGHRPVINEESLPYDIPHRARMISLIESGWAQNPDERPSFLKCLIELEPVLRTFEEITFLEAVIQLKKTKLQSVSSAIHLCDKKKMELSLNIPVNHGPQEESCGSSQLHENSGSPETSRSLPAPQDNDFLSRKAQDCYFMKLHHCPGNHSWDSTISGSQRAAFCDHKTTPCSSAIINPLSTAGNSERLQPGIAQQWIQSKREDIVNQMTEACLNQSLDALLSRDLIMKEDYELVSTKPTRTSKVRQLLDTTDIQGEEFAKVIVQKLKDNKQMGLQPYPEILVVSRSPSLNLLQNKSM

[10] = target: TGF-beta receptor type-2 (Homo sapiens) (UniProt P37173); experiment: Selectivity interaction (KinomeScan (DiscoverX)) EUB0000666a TGFBR2; settings: at 10 µM
TGF-beta receptor type-2 (Homo sapiens), sequence (P37173 whole entry): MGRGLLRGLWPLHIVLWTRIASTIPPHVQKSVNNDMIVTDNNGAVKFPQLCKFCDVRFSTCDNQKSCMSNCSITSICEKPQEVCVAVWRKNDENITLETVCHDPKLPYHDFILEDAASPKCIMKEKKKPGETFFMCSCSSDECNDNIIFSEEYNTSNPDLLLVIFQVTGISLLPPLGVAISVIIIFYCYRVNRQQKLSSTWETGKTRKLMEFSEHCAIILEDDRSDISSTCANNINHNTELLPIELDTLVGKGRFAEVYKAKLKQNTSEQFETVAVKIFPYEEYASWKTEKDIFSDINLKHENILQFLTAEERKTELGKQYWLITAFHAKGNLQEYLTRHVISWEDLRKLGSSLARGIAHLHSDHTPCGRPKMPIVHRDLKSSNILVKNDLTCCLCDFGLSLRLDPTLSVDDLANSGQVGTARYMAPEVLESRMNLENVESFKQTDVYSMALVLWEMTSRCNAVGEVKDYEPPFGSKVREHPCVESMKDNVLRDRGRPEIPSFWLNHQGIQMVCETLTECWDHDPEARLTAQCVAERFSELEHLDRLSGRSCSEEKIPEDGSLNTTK

Tyrosine-protein kinase receptor Tie-1 (Homo sapiens), sequence (P35590 whole entry): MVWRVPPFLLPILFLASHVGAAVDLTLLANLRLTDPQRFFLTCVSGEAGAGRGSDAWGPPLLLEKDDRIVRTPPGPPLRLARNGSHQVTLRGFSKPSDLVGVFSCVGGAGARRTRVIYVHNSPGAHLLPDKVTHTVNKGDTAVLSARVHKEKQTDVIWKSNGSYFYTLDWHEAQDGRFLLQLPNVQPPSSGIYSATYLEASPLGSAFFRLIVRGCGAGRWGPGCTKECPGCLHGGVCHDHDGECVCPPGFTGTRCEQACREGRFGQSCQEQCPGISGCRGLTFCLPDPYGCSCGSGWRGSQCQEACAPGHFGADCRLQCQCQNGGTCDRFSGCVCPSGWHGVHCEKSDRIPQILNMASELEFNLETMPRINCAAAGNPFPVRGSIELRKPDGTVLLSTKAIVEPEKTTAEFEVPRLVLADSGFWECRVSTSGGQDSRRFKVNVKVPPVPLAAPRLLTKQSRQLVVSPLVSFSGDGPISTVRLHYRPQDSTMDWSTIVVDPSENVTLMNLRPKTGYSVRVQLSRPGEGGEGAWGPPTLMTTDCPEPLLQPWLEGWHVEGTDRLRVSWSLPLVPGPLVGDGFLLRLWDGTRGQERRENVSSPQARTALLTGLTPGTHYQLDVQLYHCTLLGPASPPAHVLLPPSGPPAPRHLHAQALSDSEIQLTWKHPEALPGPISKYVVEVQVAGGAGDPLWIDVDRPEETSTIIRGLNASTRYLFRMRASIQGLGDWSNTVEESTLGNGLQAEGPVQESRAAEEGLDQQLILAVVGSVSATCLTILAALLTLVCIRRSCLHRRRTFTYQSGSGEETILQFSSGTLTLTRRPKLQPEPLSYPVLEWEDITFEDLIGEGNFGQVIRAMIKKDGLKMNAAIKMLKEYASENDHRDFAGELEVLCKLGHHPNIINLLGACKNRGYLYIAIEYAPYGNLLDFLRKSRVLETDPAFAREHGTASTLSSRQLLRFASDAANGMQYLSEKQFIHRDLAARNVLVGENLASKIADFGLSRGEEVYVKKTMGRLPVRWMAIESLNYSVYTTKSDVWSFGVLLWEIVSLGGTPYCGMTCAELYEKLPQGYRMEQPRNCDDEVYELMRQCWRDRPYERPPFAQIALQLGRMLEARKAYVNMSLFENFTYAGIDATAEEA

SMILES: COc1cc(Nc2nc(C)cc(-c3cnn4nc(OC)ccc34)n2)cc(C(F)(F)F)c1
% of control [1]: 84%

XC50 (MAO-B (MAOB)): 20 µM
SMILES: CCn1c(-c2nc3cc(C(=O)N4CCCC(N)C4)ccc3n2C)cc2ccccc21 (configuration not stated)

SMILES: CN(C)C/C=C/C(=O)Nc1ccc(C(=O)N2CCCC(Nc3ncc(Cl)c(-c4c[nH]c5ccccc45)n3)C2)cc1 (configuration not stated)
% of control [2]: 10%

% of inhibition [3]: -3.65%
% of control [4]: -4.06%
SMILES: Cn1cc(-n2cnc3c(NCc4nc5cc(Cl)c(Cl)cc5[nH]4)nc(N4CCOCC4)nc32)cn1

% of inhibition [5]: 4%
SMILES: Cc1ccc(-c2ccc3c(ccc4sc5c(c43)NC[C@@H](C)NC5=O)n2)cn1

SMILES: C=CC(=O)Nc1cc(-n2c(=O)ccc3cnc4ccc(-c5ccc(NS(C)(=O)=O)cc5)cc4c32)ccc1C
% of control [6]: 5.6%

SMILES: C=CC(=O)Nc1ccc(C(=O)Nc2[nH]nc3c2CN(C(=O)N[C@H](CN(C)C)c2ccccc2)C3(C)C)cc1
% of engagement [7]: 6.7%

SMILES: COCCN1CCC(c2cc(CN(C)C(=O)c3cccc(Oc4ccccc4)c3)ccn2)CC1
% activity ([8]; at 1 µM): 90%
% activity ([8]; at 10 µM): > 90%

SMILES: O=C(NOC[C@H](O)CO)c1ccc(F)c(F)c1Nc1ccc(I)cc1F
% of control [9]: 66%
% of control [10]: 100%
